Experimental data reported in ChEMBL document CHEMBL4480440, “Synthesis and radical-scavenging activity of C-methylated fisetin analogues” (Bioorg Med Chem, 2019).

Columns and labels:
[1] = Antioxidant activity assessed as galvinoxyl radical scavenging activity by measuring second order rate constant by UV-vis spectrometric analysis; type: functional
[2] = Antioxidant activity assessed as galvinoxyl radical scavenging activity by measuring increase in pseudo first-order rate constant UV-vis spectrometric analysis; type: functional

Structure (SMILES) | K [1] | Activity [2]
O=c1c(O)c(-c2ccc(O)c(O)c2)oc2cc(O)ccc12 | 7.58 ×10¹ /M/s | 
Cc1cc(-c2oc3cc(O)ccc3c(=O)c2O)c(C)c(O)c1O | 1.58 ×10³ /M/s | Dose-dependent effect
Cc1cc(-c2oc3cc(O)ccc3c(=O)c2O)cc(O)c1O | 1.66 ×10⁵ /M/s | 
Cc1c(-c2oc3cc(O)ccc3c(=O)c2O)ccc(O)c1O | 1.55 ×10² /M/s | 
